{
  "source": "patent US20180256673A1",
  "about": "“METHODS FOR TREATING FUNGAL INFECTIONS” (priority 2015, published 2018)",
  "key": {"C. albicans NRRL Y-477 [1]": {"tested_on": "C. albicans NRRL Y-477", "test": "microbe, parasite or virus in culture", "assay_type": "cell-based, Candida albicans"}, "[2]": {"tested_on": "C. glabrata ATCC 90030, ATCC 2001", "test": "microbe, parasite or virus in culture", "assay_type": "cell-based, Candida glabrata"}, "C. parapsilosis CP02 [3]": {"tested_on": "C. parapsilosis CP02", "test": "Broth microdilution MIC (CLSI), Examples 3 and 4", "settings": "CP02 wild-type; 24 h, ~50% inhibition", "experimental": "(§1) Antifungal susceptibility testing. Candida strains were cultured aerobically at 35° C. on SDA plates or in RPMI 1640 broth (pH 7.0). […] MIC assays were performed in triplicate."}, "[4]": {"test": "Solubility of test articles in vehicle, visual observation (Table 22)", "assay_type": "physicochemical", "description": "Test Articles. […] Amphotericin B and fluconazole were in powder form. Amphotericin B was dissolved in 0.9% NaCl. Fluconazole was dissolved in water (WFI: water for injection)."}, "C. albicans NRRL Y-477 [5]": {"tested_on": "C. albicans NRRL Y-477", "test": "Broth microdilution MIC (CLSI), Examples 3 and 4", "experimental": "Antifungal susceptibility testing. […] MIC assays were performed in triplicate."}, "C. krusei ATCC 6258 [6]": {"tested_on": "C. krusei ATCC 6258", "test": "Broth microdilution MIC (CLSI), Examples 3 and 4", "settings": "ATCC 6258 wild-type; 24 h, ~50% inhibition", "experimental": "as §1"}, "[7]": {"tested_on": "C. glabrata ATCC 90030, ATCC 2001", "test": "Broth microdilution MIC (CLSI), Examples 3 and 4", "settings": "for Broth MIC: 24 h, ~50% inhibition", "experimental": "as §1"}, "[8]": {"tested_on": "azole-resistant Candida albicans R357 strain", "test": "microbe, parasite or virus in culture", "assay_type": "cell-based"}, "[9]": {"tested_on": "azole-resistant Candida albicans (R357)", "test": "Disseminated infection model in neutropenic ICR mice, kidney fungal counts (Example 10, Tables 22-23)", "assay_type": "in vivo"}, "C. parapsilosis CP02 [10]": {"tested_on": "C. parapsilosis CP02", "test": "microbe, parasite or virus in culture", "assay_type": "cell-based, Candida parapsilosis"}, "C. krusei ATCC 6258 [11]": {"tested_on": "C. krusei ATCC 6258", "test": "microbe, parasite or virus in culture", "assay_type": "cell-based, Candida krusei"}, "[12]": {"tested_on": "Aspergillus fumigatus (ATCC 13073)", "test": "Neutropenic mouse model of disseminated aspergillosis, survival", "assay_type": "in vivo", "settings": "in vivo"}},
  "data": [
    {"compound": "C[C@@H]1[C@H](O)[C@@H](C)/C=C/C=C/C=C/C=C/C=C/C=C/C=C/[C@H](O[C@@H]2O[C@H](C)[C@@H](O)[C@H](N)[C@@H]2O)C[C@@H]2O[C@](O)(C[C@@H](O)C[C@@H](O)[C@H](O)CC[C@@H](O)C[C@@H](O)CC(=O)O[C@H]1C)C[C@H](O)[C@H]2C(=O)O", "note": "[AMB, amphotericin B]", "values": [
      {"measurement": "MIC", "setting": "C. albicans NRRL Y-477 [1]; NRRL Y-477 P20-1, selecting drug ANID, Fks1 HS1 S645Y, 48 h read", "result": 0.5, "unit": "µg/mL"},
      {"measurement": "MIC", "setting": "C. albicans NRRL Y-477 [1]; NRRL Y-477 P20-1, selecting drug CAS", "result": 0.25, "unit": "µg/mL"},
      {"measurement": "MIC", "setting": "C. albicans NRRL Y-477 [1]; NRRL Y-477 P20-1, selecting drug CMP1, 48 h read", "result": 0.5, "unit": "µg/mL"},
      {"measurement": "MIC", "setting": "[2]; ATCC 2001 P20-2, selecting drug ANID, Fks1 HS1 D632Y", "result": 1, "unit": "µg/mL"},
      {"measurement": "MIC", "setting": "[2]; ATCC 2001 P20-2, selecting drug CAS", "result": 0.5, "unit": "µg/mL"},
      {"measurement": "MIC", "setting": "[2]; ATCC 2001 P20-2, selecting drug CMP1", "result": 0.25, "unit": "µg/mL"},
      {"measurement": "MIC", "setting": "[2]; ATCC 90030 P20-1, selecting drug ANID, Fks2 HS1 D666I, 48 h read", "result": 0.5, "unit": "µg/mL"},
      {"measurement": "MIC", "setting": "[2]; ATCC 90030 P20-1, selecting drug CAS, Fks2 HS1 F659I D666Y, 48 h read", "result": 0.25, "unit": "µg/mL"},
      {"measurement": "MIC", "setting": "[2]; ATCC 90030 P20-2, selecting drug CMP1", "result": 0.5, "unit": "µg/mL"},
      {"measurement": "Broth MIC", "setting": "C. parapsilosis CP02 [3]", "result": 0.5, "unit": "µg/mL"},
      {"measurement": "Solubility", "setting": "[4]", "result": "S"},
      {"measurement": "MIC", "setting": "C. albicans NRRL Y-477 [5]; NRRL Y-477 spontaneous mutant, Fks1 HS1 S645P", "result": 0.25, "unit": "µg/mL"},
      {"measurement": "Broth MIC", "setting": "C. albicans NRRL Y-477 [5]; NRRL Y-477 wild-type, 24 h, ~50% inhibition", "result": 0.5, "unit": "µg/mL"},
      {"measurement": "Broth MIC", "setting": "C. krusei ATCC 6258 [6]", "result": 1, "unit": "µg/mL"},
      {"measurement": "MIC", "setting": "[7]; ATCC 2001 spontaneous mutant, Fks2 HS1 D666N", "result": 0.5, "unit": "µg/mL"},
      {"measurement": "MIC", "setting": "[7]; ATCC 2001 spontaneous mutant, Fks2 HS1 D666Y", "result": 0.5, "unit": "µg/mL"},
      {"measurement": "MIC", "setting": "[7]; ATCC 2001 spontaneous mutant, Fks2 HS1 R665G", "result": 0.25, "unit": "µg/mL"},
      {"measurement": "MIC", "setting": "[7]; ATCC 2001 spontaneous mutant, Fks2 HS1 S663F", "result": 0.25, "unit": "µg/mL"},
      {"measurement": "MIC", "setting": "[7]; ATCC 2001 spontaneous mutant, Fks2 HS1 ΔF659", "result": 0.25, "unit": "µg/mL"},
      {"measurement": "MIC", "setting": "[7]; ATCC 2001 spontaneous mutant, Fks2 HS2 R1378S", "result": 0.25, "unit": "µg/mL"},
      {"measurement": "Broth MIC", "setting": "[7]; ATCC 2001 wild-type", "result": 0.5, "unit": "µg/mL"},
      {"measurement": "MIC", "setting": "[7]; ATCC 90030 spontaneous mutant, Fks2 HS1 D666H", "result": 0.5, "unit": "µg/mL"},
      {"measurement": "MIC", "setting": "[7]; ATCC 90030 spontaneous mutant, Fks2 HS1 ΔF659", "result": 0.5, "unit": "µg/mL"},
      {"measurement": "Broth MIC", "setting": "[7]; ATCC 90030 wild-type", "result": 0.5, "unit": "µg/mL"},
      {"measurement": "Susceptibility (CLSI)", "setting": "[8]; C. albicans R357", "result": "S"},
      {"measurement": "MIC", "setting": "[8]; endpoint 100% inhibition", "result": 0.5, "unit": "µg/mL"},
      {"measurement": "reduction in fungal counts", "setting": "[9]; 3 mg/kg IV once, 72 hr time point", "result": "two log reduction"},
      {"measurement": "antimicrobial effect versus vehicle (one-way ANOVA, Dunnett's test)", "setting": "[9]; 48 and 72 hr after infection, Compound 1 3, 10, 30 mg/kg IP, amphotericin B 1 and 3 mg/kg IV, fluconazole 20 mg/kg PO", "result": "Significant effects"},
      {"measurement": "MIC", "setting": "C. parapsilosis CP02 [10]; CP02 P20-1, selecting drug ANID", "result": 0.5, "unit": "µg/mL"},
      {"measurement": "MIC", "setting": "C. parapsilosis CP02 [10]; CP02 P20-1, selecting drug CAS", "result": 0.5, "unit": "µg/mL"},
      {"measurement": "MIC", "setting": "C. parapsilosis CP02 [10]; CP02 P20-1, selecting drug CMP1", "result": 0.5, "unit": "µg/mL"},
      {"measurement": "MIC", "setting": "C. krusei ATCC 6258 [11]; ATCC 6258 P20-2, selecting drug ANID", "result": 1, "unit": "µg/mL"},
      {"measurement": "MIC", "setting": "C. krusei ATCC 6258 [11]; ATCC 6258 P20-2, selecting drug CAS, Fks1 HS2 I1366S", "result": 1, "unit": "µg/mL"},
      {"measurement": "MIC", "setting": "C. krusei ATCC 6258 [11]; ATCC 6258 P20-2, selecting drug CMP1, Fks1 HS2 I1366S", "result": 1, "unit": "µg/mL"},
      {"measurement": "survival versus vehicle", "setting": "[12]", "result": "significantly longer survival than vehicle"}
    ]}
  ]
}
